Assay [1] concerns the target T1, Recombinant human TDO comprising amino acids 19-407 (Homo sapiens, UniProt P48775).
T1 construct: Recombinant human TDO comprising amino acids 19-407 with a N-terminal hexahistidine tag; hexahistidine (His6) (N); made in house; host or cells: E. coli
The experiment in a line: TDO2 enzymatic assay (NFK quantified by LCMS). The class given is biochemical. As to conditions: 15 nM enzyme, 200 μM L-tryptophan, pH7, 30 minutes pre-incubation at RT; mean values when measured multiple times; read-out: hTDO activity (IC50 in nM). The method in brief: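 NFK formed over 30 min at RT from 200 μM L-tryptophan was measured by LCMS, normalized to d5-tryptophan, after compound (0.5 nM–10 μM, duplicates, 0.6% DMSO) was preincubated 30 min with 15 nM recombinant His-tagged TDO 19-407 in phosphate buffer pH 7. IC50 from four-parameter logistic fit; repeats averaged.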

For assay [2], the target named is T2, Recombinant full-length human IDO1 (Homo sapiens, UniProt P14902).
T2 construct: Recombinant full-length human IDO1 with a N-terminal hexahistidine tag; hexahistidine (His6) (N); made in house; host or cells: E. coli
T2 sequence (P14902 whole entry): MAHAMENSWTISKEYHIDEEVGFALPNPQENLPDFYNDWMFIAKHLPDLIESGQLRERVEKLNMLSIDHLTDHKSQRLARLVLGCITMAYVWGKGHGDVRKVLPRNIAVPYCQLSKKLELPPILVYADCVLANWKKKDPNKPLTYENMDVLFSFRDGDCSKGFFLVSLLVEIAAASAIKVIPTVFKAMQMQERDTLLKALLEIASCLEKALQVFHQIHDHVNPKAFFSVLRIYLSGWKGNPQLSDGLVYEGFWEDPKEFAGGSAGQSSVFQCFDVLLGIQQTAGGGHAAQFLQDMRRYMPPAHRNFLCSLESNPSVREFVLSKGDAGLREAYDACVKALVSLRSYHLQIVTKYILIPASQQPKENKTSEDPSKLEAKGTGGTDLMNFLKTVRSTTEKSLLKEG
Put plainly: IDO1 enzymatic assay (NFK quantified by LCMS). As to conditions: 2 nM enzyme, 5 μM L-tryptophan, pH6.5, 30 minutes pre-incubation at RT; mean values when measured multiple times; read-out: hIDO activity (IC50 in nM). The class given is biochemical. The method in brief: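 IC50 comes from four-parameter logistic fits of duplicate data, with NFK quantified by LCMS and normalized to L-Trp-(indole-d5). Compound (0.5 nM–10 μM) was preincubated 30 min at RT with 2 nM E. coli-expressed IDO1 before a 30 min reaction with 5 μM tryptophan in pH 6.5 buffer containing ascorbate and methylene blue.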

T1 sequence (P48775 19-406 limits assumed): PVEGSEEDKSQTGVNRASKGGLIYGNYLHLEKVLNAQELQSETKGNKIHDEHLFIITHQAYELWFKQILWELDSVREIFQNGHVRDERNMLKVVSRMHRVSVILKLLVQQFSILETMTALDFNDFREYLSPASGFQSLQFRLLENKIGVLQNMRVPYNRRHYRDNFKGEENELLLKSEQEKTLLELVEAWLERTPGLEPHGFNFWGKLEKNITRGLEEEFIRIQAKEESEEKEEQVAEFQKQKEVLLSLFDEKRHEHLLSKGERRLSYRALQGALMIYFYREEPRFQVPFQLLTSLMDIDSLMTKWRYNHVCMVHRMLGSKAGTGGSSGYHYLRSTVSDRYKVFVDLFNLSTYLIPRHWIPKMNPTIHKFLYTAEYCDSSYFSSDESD

As for `Oc1ccc(-n2cc(C(O)c3c(C4CC4)sc4cncn34)nn2)c(C(F)(F)F)c1` (racemic) [Example 214, rac-4-{4-[(2-Cyclopropyl-imidazo[5,1-b]thiazol-3-yl)-hydroxy-methyl]-[1,2,3]triazol-1-yl}-3-trifluoromethyl-phenol], the IC50 in assay [1] amounted to 8890 nM; in assay [2], 127 nM.

Consider `CC(C)(O)CCOc1ccc(-n2cc(C(O)c3c(C(C)(F)F)sc4cncn34)nn2)cc1Cl` (racemic) [Example 307, rac-4-[2-Chloro-4-(4-{[2-(1,1-difluoro-ethyl)-imidazo[5,1-b]thiazol-3-yl]-hydroxy-methyl}-[1,2,3]triazol-1-yl)-phenoxy]-2-methyl-butan-2-ol], for which the IC50 was > 10200 nM in assay [1] and 13.9 nM in assay [2].

Regarding `Oc1cc(Cl)ccc1-n1cc(C(O)c2c(C3CC3)sc3cncn23)nn1` (racemic) [Example 221, rac-5-Chloro-2-{4-[(2-cyclopropyl-imidazo[5,1-b]thiazol-3-yl)-hydroxy-methyl]-[1,2,3]triazol-1-yl}-phenol], the IC50 was > 10200 nM in assay [1] and 90.2 nM in assay [2].

For `COc1ccc(-n2cc(C(O)c3c(C)sc4cncn34)cn2)cc1` (racemic) [Example 97, rac-[1-(4-Methoxy-phenyl)-1H-pyrazol-4-yl]-(2-methyl-imidazo[5,1-b]thiazol-3-yl)-methanol], the IC50 in assay [1] amounted to 1940 nM; in assay [2] it was 121 nM.

In the case of `COc1ccc(-n2cc(C(O)c3c(C4CC4)sc4cncn34)nn2)c(F)c1Cl` (racemic) [Example 292, rac-[1-(3-Chloro-2-fluoro-4-methoxy-phenyl)-1H-[1,2,3]triazol-4-yl]-(2-cyclopropyl-imidazo[5,1-b]thiazol-3-yl)-methanol], the IC50 is > 10200 nM in assay [1] and 28.9 nM in assay [2].

Regarding `OC(c1nc(-c2ccccc2)no1)c1c(C2CC2)sc2cncn12` (racemic) [Example 163, rac-(2-Cyclopropyl-imidazo[5,1-b]thiazol-3-yl)-(3-phenyl-[1,2,4]oxadiazol-5-yl)-methanol], the IC50 in assay [1] was > 10200 nM; in assay [2] it was 496 nM.

`CC(C)(O)COc1ccc(-n2cc([C@H](O)c3c(C4CC4)sc4cncn34)nn2)cc1Cl` [Example 283, 1-(2-Chloro-4-{4-[(R)-(2-cyclopropyl-imidazo[5,1-b]thiazol-3-yl)-hydroxy-methyl]-[1,2,3]triazol-1-yl}-phenoxy)-2-methyl-propan-2-ol]: the IC50 in assay [1] was > 10200 nM; in assay [2], 7.31 nM.

Turning to `CC1(c2sc3cncn3c2C(O)c2cn(-c3ccc(OCCCO)c(Cl)c3)nn2)CC1` (racemic) [Example 313, rac-3-[2-Chloro-4-(4-{hydroxy-[2-(1-methyl-cyclopropyl)-imidazo[5,1-b]thiazol-3-yl]-methyl}-[1,2,3]triazol-1-yl)-phenoxy]-propan-1-ol], the IC50 in assay [1] was > 10200 nM; in assay [2] it was 13.7 nM.

Take `O=C(c1ccc(-n2cc(C(O)c3c(C4CC4)sc4cncn34)nn2)cc1)N1CCOCC1` (racemic) [Example 103, rac-(4-{4-[(2-Cyclopropyl-imidazo[5,1-b]thiazol-3-yl)-hydroxy-methyl]-[1,2,3]triazol-1-yl}-phenyl)-morpholin-4-yl-methanone]: the IC50 was > 10200 nM in assay [1] and 78.1 nM in assay [2].

As for `COc1ccc(-n2cc(C(O)c3c(-c4cccc(F)c4)sc4cncn34)nn2)cc1` (racemic) [Example 64, rac-[2-(3-Fluoro-phenyl)-imidazo[5,1-b]thiazol-3-yl]-[1-(4-methoxy-phenyl)-1H-[1,2,3]triazol-4-yl]-methanol], the IC50 was > 10200 nM in assay [1] and 177 nM in assay [2].

As for `OC(c1cn(-c2ccc3[nH]ccc3c2)nn1)c1c(C2CC2)sc2cncn12` (racemic) [Example 16, rac-(2-Cyclopropyl-imidazo[5,1-b]thiazol-3-yl)-[1-(1H-indol-5-yl)-1H-[1,2,3]triazol-4-yl]-methanol], the values for the IC50 in assay [1] and in assay [2] were 7880 nM and 9.03 nM, respectively.

In the case of `OC(c1ccc(-c2ccccc2)s1)c1c(C2CC2)sc2cncn12` (racemic) [Example 164, rac-(2-Cyclopropyl-imidazo[5,1-b]thiazol-3-yl)-(5-phenyl-thiophen-2-yl)-methanol], the values for the IC50 in assay [1] and in assay [2] were > 10200 nM and 317 nM, respectively.

Regarding `CCNS(=O)(=O)c1ccc(-n2cc(C(O)c3c(C4CC4)sc4cncn34)nn2)cc1` (racemic) [Example 239, rac-4-{4-[(2-Cyclopropyl-imidazo[5,1-b]thiazol-3-yl)-hydroxy-methyl]-[1,2,3]triazol-1-yl}-N-ethyl-benzenesulfonamide], the IC50 in assay [1] was > 10200 nM; in assay [2], 53 nM.

As for `OC(c1cn(-c2ccc(OCC3CCCCO3)cc2)nn1)c1c(C2CC2)sc2cncn12` (stereo not shown) [Example 143, (2-Cyclopropyl-imidazo[5,1-b]thiazol-3-yl)-{1-[4-(tetrahydro-pyran-2-ylmethoxy)-phenyl]-1H-[1,2,3]triazol-4-yl}-methanol], the IC50 in assay [1] is > 10200 nM; in assay [2], 18.1 nM.

As to `Oc1ccc(-n2cc(C(O)c3c([C@@H]4C[C@H]4F)sc4cncn34)nn2)cc1Cl` (relative stereo) [Example 328, 2-Chloro-4-(4-{[2-(trans-2-fluoro-cyclopropyl)-imidazo[5,1-b]thiazol-3-yl]-hydroxy-methyl}-[1,2,3]triazol-1-yl)-phenol], the IC50 in assay [1] was > 10200 nM; in assay [2], 13.1 nM.

As to `Cc1cc(O)cc(-n2cc(C(O)c3c(C4CC4)sc4cncn34)nn2)c1` (racemic) [Example 220, rac-3-{4-[(2-Cyclopropyl-imidazo[5,1-b]thiazol-3-yl)-hydroxy-methyl]-[1,2,3]triazol-1-yl}-5-methyl-phenol], the figures for the IC50 in assay [1] and in assay [2] were > 10200 nM and 27.2 nM, respectively.

For `CC(C)(O)CCOc1ccc(-n2cc(C(O)c3c([C@@H]4C[C@H]4F)sc4cncn34)nn2)cc1Cl` (relative stereo) [Example 308, 4-[2-Chloro-4-(4-{[2-(trans-2-fluoro-cyclopropyl)-imidazo[5,1-b]thiazol-3-yl]-hydroxy-methyl}-[1,2,3]triazol-1-yl)-phenoxy]-2-methyl-butan-2-ol], the figures for the IC50 in assay [1] and in assay [2] were > 10200 nM and 12.7 nM, respectively.

Regarding `O[C@@H](c1cn(-c2ccc(OCC3(F)COC3)cc2)nn1)c1c(C2CC2)sc2cncn12` [Example 145a, (R)-(2-Cyclopropyl-imidazo[5,1-b]thiazol-3-yl)-{1-[4-(3-fluoro-oxetan-3-ylmethoxy)-phenyl]-1H-[1,2,3]triazol-4-yl}-methanol], the IC50 in assay [1] is > 10200 nM; in assay [2], 8.77 nM.

Turning to `CCOc1ccc(-n2cc(C(O)c3c(CC)sc4cncn34)nn2)cn1` (racemic) [Example 46, rac-[1-(6-Ethoxy-pyridin-3-yl)-1H-[1,2,3]triazol-4-yl]-(2-ethyl-imidazo[5,1-b]thiazol-3-yl)-methanol], the half-maximal inhibitory concentration (IC50) in assay [1] is > 10200 nM; in assay [2] it was 14.3 nM.

Regarding `COc1cc(C)c(-n2cc(C(O)c3c(C4CC4)sc4cncn34)nn2)c(C)c1` (racemic) [Example 311, rac-(2-Cyclopropyl-imidazo[5,1-b]thiazol-3-yl)-[1-(4-methoxy-2,6-dimethyl-phenyl)-1H-[1,2,3]triazol-4-yl]-methanol], the values for the IC50 in assay [1] and in assay [2] were > 10200 nM and 137 nM, respectively.

The values above are taken from patent publication US20200405696A1, “INHIBITORS OF INDOLEAMINE 2,3-DIOXYGENASE AND/OR TRYPTOPHAN 2,3-DIOXYGENASE” (IDORSIA PHARMACEUTICALS LTD, priority 2018, published 2020).
